# Target: T1, hMrgpMRGPRX2 (Homo sapiens, UniProt Q96LB1)
# T1 construct: expressed in transfected cells
# T1 sequence (Q96LB1 1-330): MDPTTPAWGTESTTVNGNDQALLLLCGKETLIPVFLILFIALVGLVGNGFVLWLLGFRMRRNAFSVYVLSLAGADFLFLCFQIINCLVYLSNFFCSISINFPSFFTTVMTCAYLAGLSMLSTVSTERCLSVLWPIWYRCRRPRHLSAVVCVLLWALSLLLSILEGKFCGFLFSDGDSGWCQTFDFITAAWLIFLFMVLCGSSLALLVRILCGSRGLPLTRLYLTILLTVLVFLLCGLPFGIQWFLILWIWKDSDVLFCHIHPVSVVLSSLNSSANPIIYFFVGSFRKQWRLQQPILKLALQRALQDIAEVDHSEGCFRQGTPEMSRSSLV
# Assay: FLIPR intracellular calcium mobilization, antagonist activity in recombinant hMrgpMRGPRX2 expressing cells
# Type: cell-based
# Settings: read-out: Human MrgprX2 Antagonist pIC50 (converted)
# Outline: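 Antagonist activity was read as inhibition of intracellular calcium mobilization (FLIPR) in recombinant cells expressing human MrgprX2. Potency was also checked in LAD-2 human mast cells with endogenous receptor, and orthologue activity in cells expressing mouse MrgprB2, mouse MrgprA1, and gerbil, Chinese hamster and cynomolgus orthologues.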
row,IC50 [nM],Structure (SMILES)
1,8.51,CCN(C[C@@H](O)C(F)(F)F)C(=O)Nc1cnc(Oc2ccccc2F)cn1 [Compound E248]
2,676,CCN(C[C@@H](O)C(F)(F)F)C(=O)Nc1cnc(OCc2cccc(F)c2)cn1 [Compound E262]
3,468,CC1(C)CCN1C(=O)Nc1ccc(Oc2ccc(F)c(F)c2)cn1 [Compound E125]
4,3980,"CC(C)C(=O)Nc1ccc(N2CCc3ccccc32)cn1 [Compound E095, N-(5-indolin-1-yl-2-pyridyl)-2-methyl-propanamide]"
5,603,CCN(C[C@@H](O)C(F)(F)F)C(=O)Nc1cnc(-c2cc(F)ccc2F)cn1 [Compound E237]
6,3160,N#C[C@@H]1C[C@@H]1C(=O)Nc1ccc(Oc2ccc(F)c(F)c2)cn1 [Compound E047]
7,316,CN(CC(F)(F)F)C(=O)Nc1ccc(Oc2ccc(F)c(F)c2)cn1 [Compound E106]
8,1260,CC1(C)CC1C(=O)Nc1ccc(Oc2ccc(C#N)cc2)cn1 (centres unmarked) [Compound E057]
9,3980,CC(C)C(=O)Nc1ccc(Oc2cncc(F)c2)cn1 [Compound E051]
10,398,CC(C)(F)C(=O)Nc1ccc(Oc2ccc(F)c(F)c2)cn1 [Compound E035]
11,2510,C[C@H](C(=O)Nc1ccccn1)c1ccccc1 [Compound E209]
12,79.4,O=C(Nc1ccc(Oc2cc(F)cc(F)c2)cn1)C1CC1 [Compound E017]
13,25.1,CC(C)C(=O)Nc1ccc(Oc2cccc(Cl)c2)cn1 [Compound E016]
14,398,O=C(CC1CC1)Nc1ccc(Oc2ccc(F)c(F)c2)cn1 [Compound E046]
15,316,CC(C)C(=O)Nc1ccc(-c2ccccc2F)cn1 [Compound E167]
16,1260,"CC(C)(C#N)C(=O)Nc1ccc(-c2cc(F)cc(F)c2)cn1 [Compound E178, 2-cyano-N-[5-(3,5-difluorophenyl)-2-pyridyl]-2-methyl-propanamide]"
17,8.13,CCN(C[C@@H](O)C(F)(F)F)C(=O)Nc1ccc(Oc2c(F)cccc2F)cn1 [Compound E135]

row,Structure (SMILES),IC50 [nM]
1,"Cn1ncc(-c2ccc(NC(=O)C3C(C)(C)C3(C)C)nc2)n1 [Compound E189, 2,2,3,3-tetramethyl-N-[5-(2-methyltriazol-4-yl)-2-pyridyl]cyclopropanecarboxamide]",1170
2,CC1(C)C(C(=O)Nc2ccc(Oc3ccc(C#N)nc3)cn2)C1(C)C [Compound E063],1260
3,Cn1cc(-c2ccc(NC(=O)C3C(C)(C)C3(C)C)nc2)cn1 [Compound E185],93.3
4,CC1(C)C(C(=O)Nc2cnc(Oc3ccc(F)c(F)c3)cn2)C1(C)C [Compound E224],3.98
5,CC1(C)C(C(=O)Nc2ccc(-c3cncc(F)c3)cn2)C1(C)C [Compound E184],70.8
6,"CC1(C)C(C(=O)Nc2ccc(-c3ccon3)cn2)C1(C)C [Compound E275, N-(5-isoxazol-3-yl-2-pyridyl)-2,2,3,3-tetramethyl-cyclopropanecarboxamide]",12.3
7,CC1(C)C(C(=O)Nc2ccc(OC3COC3)cn2)C1(C)C [Compound E083],1070
8,CC1(C)C(C(=O)Nc2ccc(Nc3cncc(F)c3)cn2)C1(C)C [Compound E101],912
9,CC1(C)C(C(=O)Nc2cc3c(cn2)OCCO3)C1(C)C [Compound E216],331

# — patent US20230027929A1, “MrgprX2 Antagonists and Uses Thereof” (Dermira, Inc., priority 2019, published 2023)
